Measured values reported in the supplement of paper PMC10307832.

Experiments:
Assay in all cases: relative viability (nuclei count vs DMSO), 5 days (fraction); higher = more cells survive
Salubrinal + Vorinostat = compound: O=C(/C=C/c1ccccc1)NC(NC(=S)Nc1cccc2cccnc12)C(Cl)(Cl)Cl [Salubrinal] + O=C(CCCCCCC(=O)Nc1ccccc1)NO [Vorinostat] (partner 1 µM)
Method in brief: (§1)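 A single step with final 0.05% Triton X-100, 1% formaldehyde and 1 ug/ml Hoechst fixed the cells and stained nuclei 5 days after treatment. Lung cancer cell lines in 1536-well plates had been treated by pin tool the day after seeding with one drug alone or a fixed anchor-drug dose plus five library-drug doses (not always all listed) in √10 steps, and nuclei were counted on 4× images. Relative viability is the ratio of nuclei in treated wells to nuclei in vehicle wells, taken as the median of duplicate plates.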

[1] = compound: Cc1ccc2nc(NCCN)c3ncc(C)n3c2c1 + N=C(N)NC(=N)NCCc1ccccc1 [Phenformin] (partner 250 µM)
Method in brief: as §1

[2] = compound: Cc1ccc2nc(NCCN)c3ncc(C)n3c2c1 + CC(=O)Nc1cccc(-n2c(=O)n(C3CC3)c(=O)c3c(Nc4ccc(I)cc4F)n(C)c(=O)c(C)c32)c1 [Trametinib] (partner 0.02 µM)
Method in brief: as §1

[3] = compound: Cc1ccc2nc(NCCN)c3ncc(C)n3c2c1 + Cc1nc(NC(=O)N2CCC[C@H]2C(N)=O)sc1-c1ccnc(C(C)(C)C(F)(F)F)c1 [Alpelisib] (partner 2 µM)
Method in brief: as §1

Cell Line	relative viability (Salubrinal + Vorinostat; first compound 0.08 µM)	relative viability (Salubrinal + Vorinostat; first compound 0.253 µM)	relative viability (Salubrinal + Vorinostat; first compound 0.8 µM)	relative viability (Salubrinal + Vorinostat; first compound 2.53 µM)	relative viability (Salubrinal + Vorinostat; first compound 8 µM)	relative viability ([1]; first compound 0.04 µM)	relative viability ([1]; first compound 0.1265 µM)	relative viability ([1]; first compound 0.4 µM)	relative viability ([1]; first compound 1.265 µM)	relative viability ([1]; first compound 4 µM)	relative viability ([2]; first compound 0.04 µM)	relative viability ([2]; first compound 0.1265 µM)	relative viability ([2]; first compound 0.4 µM)	relative viability ([2]; first compound 1.265 µM)	relative viability ([2]; first compound 4 µM)	relative viability ([3]; first compound 0.04 µM)	relative viability ([3]; first compound 0.1265 µM)	relative viability ([3]; first compound 0.4 µM)	relative viability ([3]; first compound 1.265 µM)	relative viability ([3]; first compound 4 µM)
NCI-H23	0.784	0.614	0.644	0.486	0.69	0.797	0.858	0.704	0.786	0.754	0.444	0.391	0.384	0.426	0.308	0.893	0.572	0.797	0.614	0.696
NCI-H322M	0.909	0.85	0.831	0.89	0.85	0.882	0.701	0.767	0.798	0.759	0.522	0.538	0.495	0.502	0.535	0.948	0.755	0.798	0.641	0.766
NCI-H358	0.804	0.659	0.757	0.641	0.661	0.391	0.313	0.323	0.359	0.402	0.133	0.153	0.13	0.137	0.129	0.844	0.835	0.902	0.952	0.626
NCI-H441	0.824	0.563	1.18	0.605	0.616	0.791	0.85	0.922	0.923	0.769	0.487	0.47	0.342	0.346	0.512	0.646	0.719	0.843	0.746	0.928
NCI-H460	1.18	0.74	0.976	0.713	0.511	0.515	0.512	0.525	0.539	0.394	0.165	0.146	0.171	0.197	0.0969	0.54	0.495	0.476	0.382	0.374
NCI-H520	0.755	0.675	0.787	0.638	0.67	0.633	0.573	0.445	0.517	0.478	0.75	0.658	0.753	0.677	0.621	0.882	1.05	0.957	0.781	1.03
NCI-H596	0.607	0.356	0.796	0.825	0.715	0.695	0.787	0.644	0.614	0.826	0.834	0.732	0.806	0.74	0.763	0.56	0.46	0.446	0.491	0.452
NCI-H647	0.546	0.547	0.773	0.504	0.683	0.758	0.533	0.494	0.539	0.476	0.542	0.378	0.437	0.419	0.341	1.05	1.01	1.06	1.26	1
NCI-H650	0.477	0.494	0.382	0.48	0.404	0.462	0.476	0.437	0.441	0.425	1.03	0.911	1.07	0.955	0.864	1.15	0.922	1.1	0.997	0.975
NCI-H661	0.839	0.739	0.852	0.806	0.793	0.26	0.375	0.254	0.293	0.308	0.579	0.57	0.567	0.574	0.544	0.82	0.79	0.812	–	0.474
NCI-H727	1.39	0.948	1.06	1.1	1.24	0.436	–	0.527	0.555	0.64	0.453	–	0.398	0.383	0.435	0.54	0.618	0.62	0.599	0.471
NCI-H838	0.764	0.736	0.728	0.697	0.751	0.655	0.602	0.587	0.543	0.568	0.561	0.507	0.45	0.507	0.612	1.01	0.961	0.938	0.883	0.899
NCI-H1355	0.684	0.636	0.715	0.657	0.645	0.484	0.476	0.441	0.391	0.42	0.44	0.448	0.392	0.39	0.387	0.783	0.862	0.819	0.763	0.797
